According to publication PMC6934184, “Selective DNA-PKcs inhibition extends the therapeutic index of localized radiotherapy and chemotherapy” (The Journal of Clinical Investigation, 2019):

Target: T1, EGFR (ErbB1) T790M L858R (Homo sapiens, UniProt P00533, L858R/T790M)
T1 construct: purchased Thermo Fisher Scientific (Life Technologies) SelectScreen
Assay: SelectScreen Z'LYTE
Format: biochemical
In short: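 Percent values come from Thermo SelectScreen profiling of NU5455, combining activity and binding assays. CSF1R was run in Z'LYTE format at Km app ATP, and CAMK1 in Adapta format with ATP listed at 10.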

T1 sequence (P00533 25-1210 T790M/L858R): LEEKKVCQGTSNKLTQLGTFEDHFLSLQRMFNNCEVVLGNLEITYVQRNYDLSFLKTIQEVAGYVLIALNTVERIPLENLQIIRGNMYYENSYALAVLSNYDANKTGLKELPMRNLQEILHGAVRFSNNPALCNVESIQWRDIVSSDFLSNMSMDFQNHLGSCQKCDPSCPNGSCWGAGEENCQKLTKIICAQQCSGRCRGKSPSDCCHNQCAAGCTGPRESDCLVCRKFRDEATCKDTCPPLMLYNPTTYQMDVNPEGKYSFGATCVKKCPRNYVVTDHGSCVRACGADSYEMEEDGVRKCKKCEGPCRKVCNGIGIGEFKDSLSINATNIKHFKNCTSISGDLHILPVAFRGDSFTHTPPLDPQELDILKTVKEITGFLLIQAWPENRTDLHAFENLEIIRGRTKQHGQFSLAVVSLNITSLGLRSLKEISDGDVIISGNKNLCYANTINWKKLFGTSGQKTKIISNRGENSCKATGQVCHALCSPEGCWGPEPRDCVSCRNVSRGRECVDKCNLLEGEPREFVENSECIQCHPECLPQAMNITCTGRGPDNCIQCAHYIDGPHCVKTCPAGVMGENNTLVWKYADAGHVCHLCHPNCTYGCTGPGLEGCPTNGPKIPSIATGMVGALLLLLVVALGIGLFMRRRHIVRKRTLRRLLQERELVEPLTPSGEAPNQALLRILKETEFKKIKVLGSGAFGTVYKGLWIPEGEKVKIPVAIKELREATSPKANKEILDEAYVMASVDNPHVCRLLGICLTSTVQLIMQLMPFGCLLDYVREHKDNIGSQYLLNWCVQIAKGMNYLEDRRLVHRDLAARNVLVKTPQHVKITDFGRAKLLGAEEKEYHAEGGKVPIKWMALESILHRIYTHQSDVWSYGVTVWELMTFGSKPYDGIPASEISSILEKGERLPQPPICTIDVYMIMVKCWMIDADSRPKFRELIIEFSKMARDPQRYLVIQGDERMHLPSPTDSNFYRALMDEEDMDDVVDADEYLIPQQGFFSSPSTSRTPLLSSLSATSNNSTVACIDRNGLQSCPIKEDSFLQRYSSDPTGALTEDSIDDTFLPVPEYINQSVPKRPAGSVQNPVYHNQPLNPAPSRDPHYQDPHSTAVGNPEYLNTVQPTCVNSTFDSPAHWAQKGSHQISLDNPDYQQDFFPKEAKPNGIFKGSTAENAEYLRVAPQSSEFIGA

Work on CN(C(=O)CN1CCOCC1)c1ccc2sc3c(-c4cccc5c(=O)cc(N6CC7CCC(C6)O7)oc45)cccc3c2c1 [NU5455] yielded an inhibition at 1 µM of -14.1%.
